Results on one compound are retold here after article PMC3859378 (Archives of biochemistry and biophysics, 2013).

The experiment concerns the target Mtb-GAPDH (Mycobacterium tuberculosis, UniProt P9WN83). As to the kind of experiment: time- and concentration-dependent inactivation, Kitz-Wilson re-plot. The class given is biochemical. The settings on record: read-out: Ki.

Sequence of Mtb-GAPDH (P9WN83 whole entry): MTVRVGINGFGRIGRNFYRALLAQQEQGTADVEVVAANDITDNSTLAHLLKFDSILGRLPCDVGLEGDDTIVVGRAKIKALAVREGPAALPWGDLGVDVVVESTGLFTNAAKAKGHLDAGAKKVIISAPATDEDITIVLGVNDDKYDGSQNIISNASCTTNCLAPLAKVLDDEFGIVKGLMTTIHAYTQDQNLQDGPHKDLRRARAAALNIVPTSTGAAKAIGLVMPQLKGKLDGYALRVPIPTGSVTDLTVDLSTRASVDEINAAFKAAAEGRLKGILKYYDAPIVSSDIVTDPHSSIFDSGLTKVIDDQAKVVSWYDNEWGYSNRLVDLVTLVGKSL

For the compound `NC(=O)CI` [IAM, iodoacetamide], the KI (inactivation) was 7.8 mM.
